Assay results from patent US9994552B2, “Compositions useful for treating disorders related to kit” (BLUEPRINT MEDICINES CORPORATION, priority 2013, dated 2018).

Key:
[1] = molecular target: Kit D816V kinase activity (Kit autophosphorylation at tyrosine 719) (Homo sapiens (Human), UniProt P10721, D816V/V560G); assay: HMC1.2 Autophosphorylation Assay (AlphaLISA phospho-Y719 c-Kit)
Description: 10,000 HMC1.2 cells were incubated in 22 ul culture media (phenol-red free IMDM, no serum) in each well of a 384-well plate and serum starved overnight in a tissue culture incubator (5% CO2, 37° C.). […] After 90 minutes, 6 ul of 5× AlphaLISA Lysis Buffer (Perkin Elmer) supplemented with a protease and phosphatase inhibitor cocktail (Cell Signaling Technologies) was added to each well and shaken at 450 rpm for 15 minutes at 4° C. […] 10 ul of 100 ug/ml streptavidin donor beads (Perkin Elmer) were added to each well, blocked from light with aluminum adhesive and shaken at 300 rpm at room temperature for 2 hours. Fluorescence signal was obtained on Envision (Perkin Elmer) by AlphaScreen 384 well HTS protocol.

HMC1.2 cells = assay: HMC1.2 Proliferation Assay (CellTiter-Glo); details: 72 h, read-out: HMC1.2 Proliferation IC50
Description: 1000 HMC1.2 cells were incubated in 22 ul culture media (IMDM, 10% calf serum with Iron) in each well of a 384-well plate overnight in a tissue culture incubator (5% CO2, 37° C.). […] After 3 days incubation in tissue culture incubator, 25 ul CellTiter-Glo (Promega) solution was added to each well for ATP/cell viability measurement.
In addition, these compounds were assayed for their ability to inhibit the dependence of these cells on Kit kinase activity by disrupting their growth and proliferation.

wild type Kit = wild type Kit (Homo sapiens (Human), UniProt P10721); assay: Kit wild type assay at Km (Caliper electrophoretic mobility shift); type: biochemical; details: wild type Kit 2 nM, 400 uM ATP (Km), 1 uM Srctide, 25 C, 90 minutes; read-out: INH-KITWT ENZ-KM IC50 (nM) (Num)
Description: (§1) In order to assess the activity of chemical compounds against the relevant kinase of interest, the Caliper LifeSciences electrophoretic mobility shift technology platform is used. Fluorescently labeled substrate peptide is incubated in the presence of kinase and ATP so that a […] proportion of the peptide is phosphorylated. At the end of the reaction, the mix of phosphorylated (product) and non-phosphorylated (substrate) peptides are passed through the microfluidic system of the Caliper EZ Reader 2, under an applied potential difference. The presence of the phosphate group on the product peptide provides a difference in mass and charge between those of the substrate peptide, resulting in a separation of the substrate and product pools in the sample. As the pools pass a LEDS within the instrument, these pools are detected and resolved as separate peaks. The ratio between these peaks therefore reflects the activity of the chemical matter at that concentration in that well, under those conditions.
(§2) The reaction was stopped by the addition of 70 ul of Stop buffer (100 mM HEPES pH 7.5, 0.015% Brij 35, 35 mM EDTA and 0.2% of Coating Reagent 3 (Caliper Lifesciences)). The plate was then read on a Caliper EZReader 2 (protocol settings: −1.9 psi, upstream voltage −700, downstream voltage −3000, post sample sip 35 s).

D816V Kit = D816V Kit (Homo sapiens (Human), UniProt P10721, D816V); assay: Kit D816V assay at Km (Caliper electrophoretic mobility shift); type: biochemical; details: for IC50: D816V Kit 0.5 nM, 15 uM ATP (Km), 1 uM Srctide, 25 C, 90 minutes, read-out: INH-KITD816V ENZ-KM IC50 (nM) (Num); for times more potent against the D816V mutant than against the wild-type Kit: D816V Kit versus wild-type Kit, enzyme assays at Km
Description: as §1, §2

Sequence of D816V Kit (P10721 26-976 D816V): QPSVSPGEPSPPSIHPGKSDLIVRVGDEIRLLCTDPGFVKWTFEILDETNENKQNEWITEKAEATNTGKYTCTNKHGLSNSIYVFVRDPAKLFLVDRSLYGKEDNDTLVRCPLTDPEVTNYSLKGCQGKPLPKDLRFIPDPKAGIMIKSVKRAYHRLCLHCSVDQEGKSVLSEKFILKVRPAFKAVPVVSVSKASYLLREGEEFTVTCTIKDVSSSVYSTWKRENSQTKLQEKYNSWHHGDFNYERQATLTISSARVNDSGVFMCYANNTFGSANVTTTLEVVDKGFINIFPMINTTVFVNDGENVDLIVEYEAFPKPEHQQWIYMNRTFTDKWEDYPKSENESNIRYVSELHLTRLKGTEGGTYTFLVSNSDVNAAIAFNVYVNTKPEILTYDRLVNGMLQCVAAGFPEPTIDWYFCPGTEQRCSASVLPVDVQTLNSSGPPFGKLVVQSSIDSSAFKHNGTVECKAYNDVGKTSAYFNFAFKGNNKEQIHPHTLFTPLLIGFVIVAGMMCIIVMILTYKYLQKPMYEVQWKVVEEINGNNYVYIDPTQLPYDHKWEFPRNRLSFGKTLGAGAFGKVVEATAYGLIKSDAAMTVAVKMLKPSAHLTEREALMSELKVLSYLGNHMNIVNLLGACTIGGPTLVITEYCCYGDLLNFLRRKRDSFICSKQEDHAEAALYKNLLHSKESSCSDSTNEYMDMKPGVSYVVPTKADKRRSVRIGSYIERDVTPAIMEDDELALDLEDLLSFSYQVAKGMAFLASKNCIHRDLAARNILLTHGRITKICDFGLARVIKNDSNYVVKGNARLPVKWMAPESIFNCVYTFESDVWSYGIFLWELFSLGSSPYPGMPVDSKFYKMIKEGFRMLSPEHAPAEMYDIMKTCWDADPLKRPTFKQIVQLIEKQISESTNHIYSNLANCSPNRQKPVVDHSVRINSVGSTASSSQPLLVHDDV
Sequence of Kit D816V kinase activity (Kit autophosphorylation at tyrosine 719) (P10721 26-976 V560G/D816V): as the sequence (P10721 26-976 D816V) above, with V535G counted along it
Sequence of wild type Kit (P10721 26-976): as the sequence (P10721 26-976 D816V) above, with V791D counted along it

**Q.** For `COc1cc2c(N3CCN(c4ncc(Cc5ccccc5)cn4)CC3)ncnc2cc1OCCN1CCCC1=O` [Compound 111], which IC50 [1] is on record?
**A.** 100 to 1000 nM

**Q.** And the IC50 (HMC1.2 cells)?
**A.** 1000 to 10000 nM

**Q.** What about the IC50 (wild type Kit) of the same compound?
**A.** 11 to 100 nM

**Q.** What about the IC50 (D816V Kit) of the same compound?
**A.** < 1 nM

**Q.** Which results are given for `COc1cc2ncnc(N3CCN(c4ncc(Cc5ccccc5)cn4)CC3)c2cc1OCC1CCN(C)CC1` [Compound 112]?
**A.** IC50 [1]: 10 to 100 nM; IC50 (HMC1.2 cells): 1000 to 10000 nM; IC50 (wild type Kit): 11 to 100 nM; IC50 (D816V Kit): < 1 nM

**Q.** `COc1cc2ncnc(N3CCN(c4ncc(Cc5ccccc5)c(=O)[nH]4)CC3)c2cc1OCC1CNCCO1` (stereo not shown) [Compound 119] was tested. Which IC50 [1] did it give?
**A.** 1000 to 10000 nM

**Q.** What about the IC50 (HMC1.2 cells) of the same compound?
**A.** > 10000 nM

**Q.** And the IC50 (wild type Kit)?
**A.** < 10 nM

**Q.** And the IC50 (D816V Kit)?
**A.** < 1 nM

**Q.** What does the source list for `COc1cc2c(N3CCN(c4ncc(Cc5ccccc5)cn4)CC3)ncnc2cc1OCCCN1CCCCC1` [Compound 123]?
**A.** IC50 [1]: 1000 to 10000 nM; IC50 (HMC1.2 cells): 1000 to 10000 nM; IC50 (wild type Kit): 100 to 1000 nM; IC50 (D816V Kit): 10 to 100 nM

**Q.** How did the IC50 [1] turn out when `COc1cc2ncnc(N3CCN(c4ncc(Cc5ccccc5)c(N)n4)CC3)c2cc1OCC1CCN(C)CC1` [Compound 125] was run?
**A.** < 10 nM

**Q.** And the IC50 (HMC1.2 cells)?
**A.** 100 to 1000 nM

**Q.** And the IC50 (wild type Kit)?
**A.** < 10 nM

**Q.** What about the IC50 (D816V Kit) of the same compound?
**A.** < 1 nM

**Q.** Which results are given for `COc1cc2ncnc(N3CCN(c4ncc(Cc5ccccc5)cn4)CC3)c2cc1OCCN1CCN(C)CC1` [Compound 126]?
**A.** IC50 (wild type Kit): 11 to 100 nM; IC50 (D816V Kit): 1.01 to 10 nM

**Q.** `COc1cc2ncnc(N3CCN(c4ncc(Cc5ccccc5)c(=O)[nH]4)CC3)c2cc1OCC1CCN(C)CC1` [Compound 127] was tested. Which IC50 (wild type Kit) did it give?
**A.** < 10 nM

**Q.** And the IC50 (D816V Kit)?
**A.** < 1 nM

**Q.** `COc1cc2ncnc(N3CCN(c4ncc(Cc5ccccc5)c(=O)[nH]4)CC3)c2cc1OC[C@@H]1CCCN(C)C1` [Compound 128] was tested. Which IC50 (wild type Kit) did it give?
**A.** 11 to 100 nM

**Q.** And the IC50 (D816V Kit)?
**A.** 1.01 to 10 nM

**Q.** How did the IC50 (wild type Kit) turn out when `COc1cc2ncnc(N3CCN(c4ncc(Cc5ccccc5)cn4)CC3)c2cc1OC1CCN(CCO)CC1` [Compound 129] was run?
**A.** 11 to 100 nM

**Q.** And the IC50 (D816V Kit)?
**A.** 1.01 to 10 nM

**Q.** What about the “times more potent against the D816V mutant than against the wild-type Kit” value (D816V Kit) of the same compound?
**A.** less than 5 times

**Q.** With `COc1cc2ncnc(N3CCN(c4ncc(Cc5ccccc5)c(=O)[nH]4)CC3)c2cc1OCC1CN(C)CCO1` (stereo not shown) [Compound 130] as the compound, how does the IC50 (wild type Kit) read?
**A.** < 10 nM

**Q.** What about the IC50 (D816V Kit) of the same compound?
**A.** 1.01 to 10 nM

**Q.** What does the source list for `COc1cc2ncnc(N3CCN(c4ncc(Cc5ccccc5)cn4)CC3)c2cc1OCC1(F)CCN(C)CC1` [Compound 131]?
**A.** IC50 (wild type Kit): < 10 nM; IC50 (D816V Kit): < 1 nM

**Q.** `COc1cc2ncnc(N3CCN(c4ncc(Nc5ccc(F)cc5)cn4)CC3)c2cc1OCC1CCN(C)CC1` [Compound 132] was tested. Which IC50 (wild type Kit) did it give?
**A.** 11 to 100 nM

**Q.** And the IC50 (D816V Kit)?
**A.** 1.01 to 10 nM

**Q.** With `COc1cc2ncnc(N3CCN(c4ncc(Oc5ccc(F)cc5)cn4)CC3)c2cc1OCC1CCN(C)CC1` [Compound 133] as the compound, how does the IC50 (wild type Kit) read?
**A.** 11 to 100 nM

**Q.** And the IC50 (D816V Kit)?
**A.** 1.01 to 10 nM

**Q.** What does the source list for `COc1cc2c(N3CCN(c4ncc(Cc5ccccc5)cn4)CC3)ncnc2cc1OCCCN1CCN(C)CC1` [Compound 134]?
**A.** IC50 [1]: 10 to 100 nM; IC50 (HMC1.2 cells): 100 to 1000 nM; IC50 (wild type Kit): < 10 nM; IC50 (D816V Kit): < 1 nM

**Q.** `CCOc1cc2ncnc(N3CCN(c4ncc(Cc5ccccc5)c(N)n4)CC3)c2cc1OCC1CCN(C)CC1` [Compound 135] was tested. Which IC50 (wild type Kit) did it give?
**A.** < 10 nM

**Q.** And the IC50 (D816V Kit)?
**A.** < 1 nM

**Q.** With `COc1cc2ncnc(N3CCN(c4ncc(Cc5ccccc5)cn4)CC3)c2cc1OCCCN1CCN(C)CC1` [Compound 136] as the compound, how does the IC50 [1] read?
**A.** 100 to 1000 nM

**Q.** And the IC50 (HMC1.2 cells)?
**A.** 1000 to 10000 nM

**Q.** What about the IC50 (wild type Kit) of the same compound?
**A.** 11 to 100 nM

**Q.** What about the IC50 (D816V Kit) of the same compound?
**A.** < 1 nM

**Q.** Which IC50 [1] does the source give for `COc1cc2c(N3CCN(c4ncc(Nc5ccc(C)cc5)cn4)CC3)ncnc2cc1OCCCN1CCCCC1` [Compound 137] here?
**A.** 100 to 1000 nM

**Q.** What about the IC50 (HMC1.2 cells) of the same compound?
**A.** 1000 to 10000 nM

**Q.** And the IC50 (wild type Kit)?
**A.** 11 to 100 nM

**Q.** What about the IC50 (D816V Kit) of the same compound?
**A.** 1.01 to 10 nM

**Q.** Which IC50 (wild type Kit) does the source give for `CCOc1cc2ncnc(N3CCN(c4ncc(Cc5ccccc5)c(=O)[nH]4)CC3)c2cc1OCC1CCN(C)CC1` [Compound 138] here?
**A.** < 10 nM

**Q.** And the IC50 (D816V Kit)?
**A.** < 1 nM

**Q.** And the “times more potent against the D816V mutant than against the wild-type Kit” value (D816V Kit)?
**A.** less than 5 times

**Q.** Which results are given for `COc1cc2ncnc(N3CCN(c4ncc(Cc5ccccc5)cn4)CC3)c2cc1OCC1CCN(CCO)CC1` [Compound 139]?
**A.** IC50 (wild type Kit): 11 to 100 nM; IC50 (D816V Kit): 1.01 to 10 nM

**Q.** Which IC50 (wild type Kit) does the source give for `COc1cc2ncnc(N3CCN(c4ncc(Sc5ccc(F)cc5)cn4)CC3)c2cc1OCC1CCN(C)CC1` [Compound 140] here?
**A.** 11 to 100 nM

**Q.** And the IC50 (D816V Kit)?
**A.** 1.01 to 10 nM
